Earlier results in patent US20240335377A1, “COMPOSITION AND METHODS OF TREATMENT USING TRANSDERMAL SUPPLEMENTATION” (Xygenyx Inc., priority 2023, published 2024).
Where a SMILES comes first, the peptide text is derived from it. [ ]: non-standard residue; d: D form. Cit = NC(=O)NCCC[C@H](N)C(=O)O

Key:
skin [1] = details: single penetration enhancer
[2] = test system: wide dynamic range neurons in the ventroposterolateral nucleus of the thalamus
skin [3] = details: topical, concentrations 0.5-5%
skin [4] = details: topical formulations, within four weeks of treatment
F2-isoprostane = details: large doses of 1600-3200 IU/day
[5] = dietary supplementation, doses up to 400 IU/day
rheumatoid arthritis = rheumatoid arthritis study
[6] = α-tocopherol taken as 1.0
[7] = even when dietary intake occurs in equal portions
markers of inflammation = details: supplementation, individuals with metabolic syndrome
[8] = in vivo

In the case of `CC1CCC(C(C)C)C(O)C1` (stereo not shown) [Menthol], the “increase of transdermal drug uptake (factor)” value (skin [1]) is listed as ≥ 10.
For `CCCCCc1cc(O)c2c(c1)OC(C)(C)[C@@H]1CCC(C)=C[C@@H]21` [THC, Δ-9-tetrahydrocannabinol], the “power in mediating pain relative to morphine” value [2] is given as “ten times more powerful than morphine”.
For `C=CCCCCCCCCC(=O)N[C@@H](Cc1ccccc1)C(=O)O` [UP, Undecylenoyl phenylalanine], the “time to skin lightening effects” value (skin [3]) is listed as ≥ 7 days.
In the case of `CC12CCC(CC1)C(C)(C)O2` [eucalyptol, Eucalyptol], the “increase of transdermal drug uptake (factor)” value (skin [1]) is listed as “more than 10”.
In the case of `C/C(=C\CO)CCC[C@H](C)CCC[C@H](C)CCCC(C)C` [phytol, Phytol], the solubility in water is given as “nearly insoluble in water”.
In the case of `CC[C@H](C)[C@H](NC(=O)[C@H](CC(=O)O)NC(=O)[C@@H](N)CCCCN)C(=O)N[C@@H](CCCNC(N)=O)C(N)=O` [tripeptide-10 citrulline, Tripeptide-10 citrulline] (H-KDI[Cit]-NH2), the improvement of suppleness (skin [4]) is listed as ≤ 54%.
In the case of `Cc1c(C)c2c(c(C)c1O)CCC(C)(CCCC(C)CCCC(C)CCCC(C)C)O2` (stereo not drawn) [α-tocopherol], the “blood plasma concentration of F2-isoprostane” value (F2-isoprostane) is given as “significantly lower”, the “reduction of risk of coronary disease” value [5] is given as “up to 34%” and the “reduction of risk of developing neurodegenerative diseases such as Alzheimer's Syndrome or dementia” value ([5]; controlled trials) is given as ≤ 24%.
For `C=C1CC/C=C(\C)CC[C@@H]2[C@@H]1CC2(C)C` [β-caryophyllene], the “swelling of joints and lymph nodes, circulating and articular leukocytes” value (rheumatoid arthritis) is given as “reduced swelling of joints and lymph nodes as well as the number of circulating and articular leukocytes”.
In the case of `Cc1cc(O)c(C)c2c1OC(C)(CCCC(C)CCCC(C)CCCC(C)C)CC2` (stereo not drawn) [β-tocopherol], the relative biological activity [6] is given as 0.5.
For `Cc1c(O)cc2c(c1C)OC(C)(CCCC(C)CCCC(C)CCCC(C)C)CC2` (stereo not shown) [γ-tocopherol], the relative biological activity [6] is listed as 0.1 and the “concentration in vivo relative to α-tocopherol” value [7] is listed as “roughly 10%”.
For `Cc1cc(O)cc2c1OC(C)(CCCC(C)CCCC(C)CCCC(C)C)CC2` (stereo not shown) [δ-tocopherol], the relative biological activity [6] is listed as 0.03 and the “markers of inflammation in the blood” value (markers of inflammation) is listed as “reduced markers of inflammation”.
For “HGH: hormone comprising a peptide chain that is synthesized in the pituitary gland”, the biological half-life [8] is given as 10-20 minutes.
